Experimental data as given in patent publication US20150157575A1, “Pharmaceutical Formulations Comprising Vilazodone” (Forest Laboratories Holdings Ltd., priority 2013, published 2015).
Read-outs that look alike come from different tables or passages of the source.

Columns and labels:
plasma proteins = assay: Vilazodone protein binding by equilibrium dialysis (Studies 1 and 2); format: in vitro ADME; conditions: both sexes, human, plasma of study participants, read-out: mean percent free fraction in plasma
Protocol: In both studies, additional samples (6 mL each) were collected to determine vilazodone protein binding: in Study 1, these samples were collected in duplicate at predose hour 0 and postdose hours 6 and 12; in Study 2, the samples were collected at predose hour 0 and postdose hours 4 and 12, with an additional sample (13 mL) collected at hour 0 for the determination of albumin concentration.
The plasma concentrations of vilazodone (Studies 1 and 2) and its metabolite M17 (Study 2), vilazodone concentrations in urine (Study 1), and protein binding were determined using liquid chromatography with tandem mass spectrometry (LC/MS/MS) methodologies that have been validated for the following ranges: plasma vilazodone, 0.75 to 250 ng/mL (Study 1) and 0.5 to 250 ng/mL (Study 2); plasma M17, 0.25-125 ng/mL; urine vilazodone, 1.0-200 ng/mL; vilazodone protein binding, high range (sample compartment) 2.7-108 ng/mL, low range (buffer compartment) 0.1-5.4 ng/mL. The extent of vilazodone binding to plasma proteins was determined using equilibrium dialysis.

clinical = assay: clinical; parameters: species or system human; conditions: both sexes, human, in vivo, Mean trough plasma concentration
Protocol: An open-label, multiple-dose, single-sequence study to evaluate the effect of steady-state carbamazepine XR, 400 mg once daily, a CYP3A4 substrate and inducer, on the pharmacokinetics of steady-state vilazodone 40 mg tablets once daily, with hardness of more than 10 kp and less than 14 kp, preferably about 12 kp as shown in Table 3 (No Tablet Breakage). Vilazodone was co-administered with carbamazepine XR (extended release formulation). Carbamazepine is an antiepileptic drug approved for the treatment of psychomotor and grand mal seizures is metabolized by CYP3A4, and is a CYP3A4 inducer.
All subjects were healthy, nonsmoking male or female volunteers who were 18-45 (Study 2) years of age. Inclusion and exclusion criteria were typical of the criteria used in pharmacokinetic studies in healthy volunteers as known in the art. Inclusion criteria used included agreement to use an effective measure of contraception, body mass index (BMI)>18 and ≦30 kg/m^2 (BMI=18 allowed), normal or clinically non-significant results on physical examination, medical history, serum chemistry, hematology, and urinalysis; negative hepatitis B antigen and C antibody tests, and negative HIV test at screening. Exclusion criteria included clinically significant electrocardiogram results or QT prolongation, clinically significant disease state, history of alcohol abuse, ingestion of food, drink, or drug that may interfere with CYP enzyme activity (e.g., cruciferous vegetables, caffeine, alcohol), known sensitivity to study drug or other drugs from the same class, and use of prohibited concomitant prescription or over-the counter medications.
All volunteers received 4 treatments (A, B, C, and D) in the same, fixed sequence: Treatment A consisted of vilazodone alone on Days 1-9 and was followed by a 14-day washout, Treatment B was carbamazepine XR alone for 19 days (Days 24-42), Treatment C was vilazodone plus carbamazepine XR for 9 days (Days 43-51), and Treatment D was carbamazepine alone for 3 days (Days 52-54). Once-daily doses of study drug were administered in the morning after breakfast; twice-daily doses were administered in the morning after breakfast and 12 hours later in the evening after dinner Study drug was administered within 30 minutes after the end of the corresponding meal.
Blood samples to determine plasma concentrations of vilazodone, M17 (the metabolite of vilazodone), carbamazepine, and carbamazepine-10,11-epoxide (one of the pharmacologically active metabolites of carbamazepine) were collected into tubes pretreated with K2EDTA. For vilazodone and M17 analyses, blood samples (approximately 6 mL) were collected at pre-dose on Days 1, 7, 8, 49, and 50. […] For the analyses of carbamazepine and carbamazepine-10,11-epoxide, blood samples were collected at pre-dose on Days 24, 40, 41, 49 and 50.
Blood samples were centrifuged at no less than 2500 g for 10 minutes at 4° C. within 30 minutes of the sample draw. Plasma was harvested and transferred to polypropylene tubes and flash frozen in a dry ice bath with isopropyl alcohol or methanol. Samples for vilazodone analyses were stored at approximately −70° C. and analyzed. Samples for carbamazepine analyses were stored at −20° C. and analyzed.
Plasma samples were analyzed for vilazodone, M17, carbamazepine and/or carbamazepine-10,11-epoxide concentrations using liquid chromatography coupled with tandem mass spectrometry (LC/MS/MS). For vilazodone and M17, analytes of interest were detected by electrospray ionization mass spectrometry in the negative ion multiple reaction monitoring mode. The assay was linear in the concentration range of 0.5 to 250 ng/mL for vilazodone and 0.25 to 125 ng/mL for M17.
Based on 50 ìL of human plasma with K2EDTA as the anticoagulant, the lower limit of quantification (LLOQ) was 0.5 ng/mL for vilazodone and 0.25 ng/mL for M17. […]

[1] = target: norepinephrine reuptake site (Homo sapiens, UniProt P23975); conditions: cited from earlier work
Chain of norepinephrine reuptake site (P23975 whole entry): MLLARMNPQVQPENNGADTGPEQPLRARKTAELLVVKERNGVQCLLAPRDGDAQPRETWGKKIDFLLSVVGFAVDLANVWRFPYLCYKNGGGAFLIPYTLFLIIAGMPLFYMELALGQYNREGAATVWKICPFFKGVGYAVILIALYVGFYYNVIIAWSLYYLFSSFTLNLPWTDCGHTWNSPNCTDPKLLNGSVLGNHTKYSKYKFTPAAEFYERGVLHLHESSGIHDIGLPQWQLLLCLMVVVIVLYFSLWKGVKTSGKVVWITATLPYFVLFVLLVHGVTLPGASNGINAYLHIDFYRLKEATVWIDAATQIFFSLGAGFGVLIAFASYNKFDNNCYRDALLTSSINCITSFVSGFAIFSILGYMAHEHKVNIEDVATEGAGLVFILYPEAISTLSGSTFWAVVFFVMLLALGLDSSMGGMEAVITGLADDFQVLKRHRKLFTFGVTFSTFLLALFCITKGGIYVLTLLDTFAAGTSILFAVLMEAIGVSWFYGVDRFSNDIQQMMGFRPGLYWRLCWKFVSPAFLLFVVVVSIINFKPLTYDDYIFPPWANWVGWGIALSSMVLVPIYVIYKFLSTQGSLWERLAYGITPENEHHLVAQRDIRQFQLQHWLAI

## Cl.N#Cc1ccc2[nH]cc(CCCCN3CCN(c4ccc5oc(C(N)=O)cc5c4)CC3)c2c1 [Vilazodone, 1-[4-(5-cyanoindol-3-yl)butyl]-4-(2-carbamoyl-benzofuran-5-yl)-piperazine hydrochloride]
Plasma proteins; all participants with severe hepatic impairment
  fraction unbound: 0.0224
Plasma proteins; healthy controls
  fraction unbound: 0.01 to 0.014
Plasma proteins; participants with mild or moderate hepatic impairment
  fraction unbound: 0.016
Plasma proteins; participants with severe hepatic impairment who did not vomit
  fraction unbound: 0.0213
clinical
  concentration at 7 day: 36 ng/mL
  concentration at 8 day: 45.1 ng/mL
  concentration at 9 day: 45.3 ng/mL
[1]
  binding to norepinephrine reuptake site: not
